Results reported in patent publication US20090286827A1, “NOVEL BI-ARYL AMINES” (priority 2006, published 2009).

Biological target: T1, mGluR5 (Homo sapiens, UniProt P41594)
T1 construct: expressed in transfected cells
Test: inhibition of the glutamate induced elevation of intracellular Ca2+-concentration
Assay type: cell-based
Conditions: inhibition of glutamate induced elevation of intracellular Ca2+ at a concentration of 10 μM; for inhibition at 10 µM: read-out: mGluR5 Activity inh. at 10 μM [%]
Excerpt: This can be determined in vitro for example at recombinant human metabotropic glutamate receptors, especially PLC-coupled subtypes thereof such as mGluR5, using different procedures like, for example, measurement of the inhibition of the agonist induced elevation of intracellular Ca^2+ concentration in accordance with L. P. Daggett et al., Neuropharm. Vol. 34, pages 871-886 (1995), P. J. Flor et al., J. Neurochem. Vol. 67, pages 58-63 (1996) or by determination to what extent the agonist induced elevation of the inositol phosphate turnover is inhibited as described by T. Knoepfel et al., Eur. J. Pharmacol. Vol. 288, pages 389-392 (1995), L. P. Daggett et al., Neuropharm. Vol. 34, pages 871-886 (1995) and references cited therein. Isolation and expression of human mGluR subtypes are described in U.S. Pat. No. 5,521,297. Selected agents of the invention show IC50 values for the inhibition of the agonist (e.g. glutamate or quisqualate) induced elevation of intracellular Ca2+ concentration or the agonist (e.g. glutamate or quisqualate) induced inositol phosphate turnover, measured in recombinant cells expressing hmGluR5a of about 1 nM to about 50 μM.
Activity of compounds of the present invention was examined by measurement of the inhibition of the glutamate induced elevation of intracellular Ca^2+-concentration following similar methods than those described in L. P. Daggett et al., Neuropharm. Vol. 34, pages 871-886 (1995), P. J. Flor et al., J. Neurochem. Vol. 67, pages 58-63 (1996).
The table below represents percentages of inhibition of the glutamate induced elevation of intracellular Ca^2+-concentration at a concentration of 10 μM.

T1 sequence (P41594 21-1180 isoform P41594-2 limits assumed): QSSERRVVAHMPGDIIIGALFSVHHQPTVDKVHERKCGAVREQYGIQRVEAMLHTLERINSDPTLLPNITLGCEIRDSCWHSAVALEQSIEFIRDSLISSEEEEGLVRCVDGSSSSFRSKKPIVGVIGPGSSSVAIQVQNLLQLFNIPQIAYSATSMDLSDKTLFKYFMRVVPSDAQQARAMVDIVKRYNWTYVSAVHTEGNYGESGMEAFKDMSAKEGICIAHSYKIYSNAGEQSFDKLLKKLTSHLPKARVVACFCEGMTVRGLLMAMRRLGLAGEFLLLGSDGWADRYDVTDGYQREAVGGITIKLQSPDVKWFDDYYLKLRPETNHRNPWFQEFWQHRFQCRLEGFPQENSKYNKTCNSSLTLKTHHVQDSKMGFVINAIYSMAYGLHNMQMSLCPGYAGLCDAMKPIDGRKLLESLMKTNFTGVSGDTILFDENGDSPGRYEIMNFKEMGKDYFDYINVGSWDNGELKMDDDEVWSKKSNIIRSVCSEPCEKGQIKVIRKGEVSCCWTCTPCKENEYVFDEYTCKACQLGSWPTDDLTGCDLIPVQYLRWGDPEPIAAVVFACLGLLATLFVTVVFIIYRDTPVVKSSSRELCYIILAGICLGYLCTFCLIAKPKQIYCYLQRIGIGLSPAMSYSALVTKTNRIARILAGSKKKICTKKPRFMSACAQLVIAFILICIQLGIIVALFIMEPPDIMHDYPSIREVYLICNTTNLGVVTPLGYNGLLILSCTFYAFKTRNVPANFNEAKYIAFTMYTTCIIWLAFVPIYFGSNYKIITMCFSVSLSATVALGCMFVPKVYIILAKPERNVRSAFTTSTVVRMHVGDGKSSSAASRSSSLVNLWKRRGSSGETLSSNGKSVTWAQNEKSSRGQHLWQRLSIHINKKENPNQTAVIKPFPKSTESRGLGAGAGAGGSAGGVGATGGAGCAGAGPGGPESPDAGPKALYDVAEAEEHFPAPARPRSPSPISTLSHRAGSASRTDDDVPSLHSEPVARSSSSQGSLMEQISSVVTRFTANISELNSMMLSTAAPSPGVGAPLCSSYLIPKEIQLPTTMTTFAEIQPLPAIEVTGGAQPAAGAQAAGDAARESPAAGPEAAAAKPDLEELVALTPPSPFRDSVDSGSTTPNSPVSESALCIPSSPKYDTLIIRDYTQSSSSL

Row | inhibition at 10 µM [%] | mGluR5 Activity inh. at 10 μM [%] | Compound
1 | 48 |  | Cc1cnc(-c2cnc(Nc3ccc(Cl)cc3)c(Cl)c2)n1C [Compound 31, [3-Chloro-5-(1,5-dimethyl-1H-imidazol-2-yl)-pyridin-2-yl]-(4-chloro-phenyl)-amine]
2 | 35 |  | Cc1cn(-c2cnc(Nc3ccc(Cl)cc3)c(Cl)c2)cn1 [Compound 49, [3-Chloro-5-(4-methyl-imidazol-1-yl)-pyridin-2-yl]-(4-chloro-phenyl)-amine]
3 | 94 |  | CCn1ccnc1-c1ccc(Nc2ccc(Cl)cc2)nc1 [Compound 1, (4-Chloro-phenyl)-[5-(1-ethyl-1H-imidazol-2-yl)-pyridin-2-yl]-amine]
4 | 100 |  | Clc1ccc(Nc2ncc(-c3nnc4n3CCCCCCC4)cc2Cl)cc1 [Compound 27, [3-Chloro-5-(6,7,8,9,10,11-hexahydro-5H-[1,2,4]triazolo[4,3-a]azonin-3-yl)-pyridin-2-yl]-(4-chloro-phenyl)-amine]
5 | 100 |  | CCCn1cc(CC)nc1-c1cnc(Nc2ccc(Cl)cc2)c(Cl)c1 [Compound 34, [3-Chloro-5-(4-ethyl-1-propyl-1H-imidazol-2-yl)-pyridin-2-yl]-(4-chloro-phenyl)-amine]
6 | 100 |  | CCn1ccnc1-c1cnc(Nc2ccc(Cl)cc2)c(Cl)c1 [Compound 15, [3-Chloro-5-(1-ethyl-1H-imidazol-2-yl)-pyridin-2-yl]-(4-chloro-phenyl)-amine]
7 | 95 |  | Clc1ccc(Nc2ccc(-c3nnc4n3CCCC4)cn2)cc1 [Compound 13, (4-Chloro-phenyl)-[5-(5,6,7,8-tetrahydro-[1,2,4]triazolo[4,3-a]pyridin-3-yl)-pyridin-2-yl]-amine]
8 | 73 |  | CC(C)n1cncc1-c1ccc(Nc2ccc(Cl)cc2)nc1 [Compound 10, (4-Chloro-phenyl)-[5-(3-isopropyl-3H-imidazol-4-yl)-pyridin-2-yl]-amine]
9 | 100 |  | CCCCn1cc(CC)nc1-c1cnc(Nc2ccc(Cl)cc2)c(Cl)c1 [Compound 35, [5-(1-Butyl-4-ethyl-1H-imidazol-2-yl)-3-chloro-pyridin-2-yl]-(4-chloro-phenyl)-amine]
10 | 63 |  | Clc1ccc(Nc2ccc(-c3nccn3-c3ccccc3)cn2)cc1 [Compound 9, (4-Chloro-phenyl)-[5-(1-phenyl-1H-imidazol-2-yl)-pyridin-2-yl]-amine]
11 | 98 |  | CCCCc1cnnn1-c1cnc(Nc2ccc(Cl)cc2)c(Cl)c1 [Compound 44, [5-(5-Butyl-[1,2,3]triazol-1-yl)-3-chloro-pyridin-2-yl]-(4-chloro-phenyl)-amine]
12 | 93 |  | Clc1ccc(Nc2ncc(-c3nnc4n3CCCCC4)cc2Cl)cc1 [Compound 25, (4-Chloro-phenyl)-[3-chloro-5-(6,7,8,9-tetrahydro-5H-[1,2,4]triazolo[4,3-a]azepin-3-yl)-pyridin-2-yl]-amine]
13 | 78 |  | CCc1cn(CC)c(-c2cnc(Nc3ccc(Cl)cc3)c(Cl)c2)n1 [Compound 36, [3-Chloro-5-(1,4-diethyl-1H-imidazol-2-yl)-pyridin-2-yl]-(4-chloro-phenyl)-amine]
14 | 100 |  | CCCn1cc(C(C)(C)C)nc1-c1cnc(Nc2ccc(Cl)cc2)c(Cl)c1 [Compound 40, [5-(4-tert-Butyl-1-propyl-1H-imidazol-2-yl)-3-chloro-pyridin-2-yl]-(4-chloro-phenyl)-amine]
15 | 95 |  | CC(C)(C)c1cnc(-c2cnc(Nc3ccc(Cl)cc3)c(Cl)c2)[nH]1 [Compound 37, [5-(5-tert-Butyl-1H-imidazol-2-yl)-3-chloro-pyridin-2-yl]-(4-chloro-phenyl)-amine]
16 | 97 |  | CCn1cc(C(C)(C)C)nc1-c1cnc(Nc2ccc(Cl)cc2)c(Cl)c1 [Compound 39, [5-(4-tert-Butyl-1-ethyl-1H-imidazol-2-yl)-3-chloro-pyridin-2-yl]-(4-chloro-phenyl)-amine]

Row | inhibition at 10 µM [%] | mGluR5 Activity inh. at 10 μM [%] | Compound
17 | 56 |  | Clc1ccc(Nc2ncc(-c3nnn[nH]3)cc2Cl)cc1 [Compound 21, (4-Chloro-phenyl)-[3-chloro-5-(1H-tetrazol-5-yl)-pyridin-2-yl]-amine]
18 | 81 |  | Cn1ccnc1-c1ccc(Nc2ccc(Cl)cc2)nc1 [Compound 2, (4-Chloro-phenyl)-[5-(1-methyl-1H-imidazol-2-yl)-pyridin-2-yl]-amine]
19 | 34 |  | CC(C)c1nccn1-c1cnc(Nc2ccc(Cl)cc2)c(Cl)c1 [Compound 47, [3-Chloro-5-(2-isopropyl-imidazol-1-yl)-pyridin-2-yl]-(4-chloro-phenyl)-amine]
20 | 100 |  | CCCn1cc(C)nc1-c1cnc(Nc2ccc(Cl)cc2)c(Cl)c1 [Compound 33, [3-Chloro-5-(4-methyl-1-propyl-1H-imidazol-2-yl)-pyridin-2-yl]-(4-chloro-phenyl)-amine]
21 | 93 |  | CC(C)n1ccnc1-c1ccc(Nc2ccc(Cl)cc2)nc1 [Compound 4, (4-Chloro-phenyl)-[5-(1-isopropyl-1H-imidazol-2-yl)-pyridin-2-yl]-amine]
22 | 96 |  | Clc1ccc(Nc2ccc(-c3nccn3CC3CC3)cn2)cc1 [Compound 6, (4-Chloro-phenyl)-[5-(1-cyclopropylmethyl-1H-imidazol-2-yl)-pyridin-2-yl]-amine]
23 | 95 |  | CC(C)Cn1ccnc1-c1ccc(Nc2ccc(Cl)cc2)nc1 [Compound 5, (4-Chloro-phenyl)-[5-(1-isobutyl-1H-imidazol-2-yl)-pyridin-2-yl]-amine]
24 | 89 |  | CCCc1cnnn1-c1cnc(Nc2ccc(Cl)cc2)c(Cl)c1 [Compound 45, (4-Chloro-phenyl)-[3-chloro-5-(5-propyl-[1,2,3]triazol-1-yl)-pyridin-2-yl]-amine]
25 | 37 |  | CCc1c(C)n(CC)c(-c2cnc(Nc3ccc(Cl)cc3)c(Cl)c2)[n+]1CC [Compound 43, 2-[5-Chloro-6-(4-chloro-phenylamino)-pyridin-3-yl]-1,3,5-triethyl-4-methyl-3H-imidazol-1-ium iodide]
26 | 79 |  | CCCCn1cc(C(C)(C)C)nc1-c1cnc(Nc2ccc(Cl)cc2)c(Cl)c1 [Compound 41, [5-(1-Butyl-4-tert-butyl-1H-imidazol-2-yl)-3-chloro-pyridin-2-yl]-(4-chloro-phenyl)-amine]
27 |  | 27 | Clc1ccc(Nc2ccc(-c3nccn3C3CCCCC3)cn2)cc1 [Compound 7, (4-Chloro-phenyl)-[5-(1-yclohexyl-1H-imidazol-2-yl)-pyridin-2-yl]-amine]
28 | 96 |  | CCCn1ccnc1-c1ccc(Nc2ccc(Cl)cc2)nc1 [Compound 3, (4-Chloro-phenyl)-[5-(1-propyl-1H-imidazol-2-yl)-pyridin-2-yl]-amine]
29 | 86 |  | Cn1cc(C(C)(C)C)nc1-c1cnc(Nc2ccc(Cl)cc2)c(Cl)c1 [Compound 38, [5-(4-tert-Butyl-1-methyl-1H-imidazol-2-yl)-3-chloro-pyridin-2-yl]-(4-chloro-phenyl)-amine]
30 | 39 |  | Cc1cc(-c2cnc(Nc3ccc(Cl)cc3)c(Cl)c2)n(C)n1 [Compound 29, [3-Chloro-5-(2,5-dimethyl-2H-pyrazol-3-yl)-pyridin-2-yl]-(4-chloro-phenyl)-amine]
31 | 68 |  | CCCc1nn[nH]c1-c1cnc(Nc2ccc(Cl)cc2)c(Cl)c1 [Compound 46, (4-Chloro-phenyl)-[3-chloro-5-(5-propyl-3H-[1,2,3]triazol-4-yl)-pyridin-2-yl]-amine]
